Laboratory results: US20070014833A1, “Treatment of eye disorders with sirtuin modulators” (priority 2005, published 2007)

Legend:
optic neuritis / EAE = assay: Incidence of optic neuritis (optic nerve histology, H & E) and clinical EAE score in PLP-immunized mice; assay type: in vivo, SJL/J mice
[1] = test system: retinal ganglion cells (RGCs); assay: Retinal ganglion cell (RGC) counts in EAE mice with acute optic neuritis, intravitreal treatment; details: for RGC loss: EAE eyes with optic neuritis
Experimental: Study outline: The neuroprotective effects of nicotinamide riboside were examined in EAE mice with optic neuritis. […] To induce EAE, mice were immunized several days later with 300 μg PLP emulsified in complete Freund's adjuvant (CFA), and control mice (without EAE) were mock-immunized with phosphate buffered saline (PBS) in CFA. All mice received 200 ng intraperitoneal pertussis toxin (PT) on the day of immunization (day 0) and again on day 2.
Eyes were treated with nicotinamide riboside by intravitreal (ivt) injections with a volume of 0.8 μl/injection of a stock solution of either 0.1 M or 0.4 M nicotinamide riboside in PBS (Groups 2, 4 and 5). […] Treament with nicotinamide riboside, as well as PBS control injections, were given ivt on days 0, 4, 7 and 11. Mice were scored daily for clinical EAE, and were sacrificed on day 14 by overdose with ketamine and xylazine.
Retinas were dissected and whole-mounted for fluorescent microscopy. RGC numbers were quantified by counting FG-labeled cells in 12 standardized fields in each retina. Optic nerves were dissected and processed for histology. Cut sections stained by H & E were evaluated for the presence of inflammatory cells to determine acute optic neuritis. RGCs were compared between PBS-treated and nicotinamide riboside-treated eyes with optic neuritis to determine whether nicotinamide riboside prevents loss of neurons.

NC(=O)c1ccc[n+]([C@@H]2O[C@H](CO)[C@@H](O)[C@H]2O)c1 [nicotinamide riboside]
Inflammatory cell infiltration (optic neuritis / EAE; optic nerve): does not prevent | Clinical EAE (optic neuritis / EAE; treated mice vs controls): did not differ | Incidence of optic neuritis (optic neuritis / EAE; treated mice vs controls): did not differ | Preserving RGCs in an acute optic neuritis model (FIG. 19) [1]: effective | RGC loss ([1]; 100 mM treatment (Group 4) vs PBS-treated (Group 3)): reduced | RGC loss ([1]; 400 mM treatment (Group 5) vs PBS-treated (Group 3)): completely blocked | Neuroprotection of RGCs during acute optic neuritis in EAE ([1]; dose-dependent manner): neuroprotective | Toxicity to RGCs ([1]; mouse, in vivo): not toxic | RGC numbers, non-EAE eyes treated vs control eyes ([1]; non-EAE eyes, Group 2 vs Group 1): no difference
